# From article PMC6180429 (Organic & Biomolecular Chemistry, 2018)
# Assays:
# [1] = molecular target: T1, PPARγ (peroxisome proliferator-activated receptor γ) (Homo sapiens, UniProt P37231); assay: Gal4-PPARγ-LBD one-hybrid luciferase reporter assay in HEK293 cells (partial agonist); assay type: cell-based
# T1 construct: gene PPARG
# T1 sequence (P37231 232-505 limits assumed): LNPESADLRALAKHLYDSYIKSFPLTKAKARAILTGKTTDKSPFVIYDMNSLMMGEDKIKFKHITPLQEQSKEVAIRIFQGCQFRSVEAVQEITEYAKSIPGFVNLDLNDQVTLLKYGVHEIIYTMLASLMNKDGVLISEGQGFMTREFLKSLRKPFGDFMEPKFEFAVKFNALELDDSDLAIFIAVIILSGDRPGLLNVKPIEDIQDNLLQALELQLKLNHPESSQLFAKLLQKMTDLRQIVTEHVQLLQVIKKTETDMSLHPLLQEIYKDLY
# [2] = molecular target: T1, PPARγ (peroxisome proliferator-activated receptor γ); assay: Gal4-PPARγ reporter assay in HEK293 cells, antagonism of […] pioglitazone; assay type: cell-based
Structure (SMILES),EC50 [1],"Gal4-PPARγ reporter assay in HEK293 cells, antagonism of 10 μM pioglitazone [2]"
"C=CCc1ccc(O)c(-c2cc(CC=C)c(CCC/C=C\Cc3ccc(O)cc3)cc2O)c1 [III, Sesqui magnolol A]",1.07 µM,
"C=CCc1ccc(O)c(-c2cc(C/C=C\CCCc3cc(O)ccc3CC=C)ccc2O)c1 [IV, Sesqui magnolol B]",0.77 µM,
"C=CCc1ccc(O)cc1CCC/C=C\Cc1ccc(O)cc1 [V, Truncated magnolol dimer]",,V showed a dose-dependent inhibition of the pioglitazone induced PPARγ-Gal4 activation.
